Biological target: T1, Pq3-O-UGT2 (Panax quinquefolius, UniProt A0A0M4ME80)
T1 construct: pET-28a, C-terminal TEV site and 6xHis tag, E. coli Rosetta (DE3); Ni-NTA, HiTrap Q, Mono Q, Superdex 200; monomer; domains a.a; 1-442
T1 sequence (A0A0M4ME80 1-442): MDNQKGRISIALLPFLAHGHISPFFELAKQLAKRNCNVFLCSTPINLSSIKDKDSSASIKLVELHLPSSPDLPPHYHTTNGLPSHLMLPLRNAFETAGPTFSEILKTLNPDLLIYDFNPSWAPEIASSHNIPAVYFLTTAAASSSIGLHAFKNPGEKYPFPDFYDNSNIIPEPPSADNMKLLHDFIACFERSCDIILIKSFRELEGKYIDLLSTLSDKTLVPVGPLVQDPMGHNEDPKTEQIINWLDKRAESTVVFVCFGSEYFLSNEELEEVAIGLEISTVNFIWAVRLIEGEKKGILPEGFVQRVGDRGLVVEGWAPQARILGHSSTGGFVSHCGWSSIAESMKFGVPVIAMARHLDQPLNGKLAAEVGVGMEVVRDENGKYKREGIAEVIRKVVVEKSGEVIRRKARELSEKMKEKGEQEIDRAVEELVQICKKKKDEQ
Assay: X-ray crystallography, co-crystal, […] Å
Conditions: acceptor-binding pocket in N-terminal domain

Compound: CC(C)=CCC[C@](C)(O)[C@H]1CC[C@]2(C)[C@@H]1[C@H](O)C[C@@H]1[C@@]3(C)CC[C@H](O[C@@H]4O[C@H](CO)[C@@H](O)[C@H](O)[C@H]4O)C(C)(C)[C@@H]3CC[C@]12C [Rh2, Ginsenoside Rh2]
- X-ray crystallography, co-crystal, 3.5 Å: we solved crystal structures of apo Pq3‐O‐UGT2 and its complex with Rh2

Source: PMC11923902, “Structural Insights into the Substrate Recognition of Ginsenoside Glycosyltransferase Pq3‐O‐UGT2” (Advanced Science, 2025)
